SMILES strings stand for the structures.

Assay type in all cases: in vivo
Experiment [1] concerns spontaneously hypertensive rats. In words: Blood pressure depressing action in spontaneously hypertensive rats. The note with it: male spontaneously hypertensive rats, oral, 3.0 mg/kg, N=6; for systric pressure of median sacral artery, change at 1 hr (%): 1 hr after administration; for systric pressure of median sacral artery, change at 2 hr (%): 2 hr after administration; for systric pressure of median sacral artery, change at 4 hr (%): 4 hr after administration; for systric pressure of median sacral artery, change at 6 hr (%): 6 hr after administration; for systric pressure of median sacral artery, change at 24 hr (%): 24 hr after administration.
From the text: Pharmacological Test Example 2 (Blood pressure depressing action)

Experiment [2] has as its system mongrel dogs. In words: Blood flow increasing action (vertebral and femoral arterial blood flow, blood pressure) in anesthetized dogs. The note with it: 1µg/kg, i.v., 5 head. As for the experimental part: Pharmacological Test Example 1 (Blood flow increasing action)
An experiment was carried out by anesthetizing adult made and female mongrel dogs (weight; 10 to 20kg) with Nembutal (30mg/kg, i.p.) and artificially respiring (20ml/kg/stroke, 20 strokes/min.) the animals.
Right vertebral and femoral arteries were exposed and each probe of electro-magnetic flow meter was fitted therein to measure vertebral and femoral arterial blood flows. A cannula was inserted into descending aorta from left femoral artery, in order to measure blood pressure by a pressure transducer connected to an amplifier. Each of test compounds dissolved in 50% ethanol solution (1µg/kg, i.v.) was administered from the cannula into cephlic vein.
Further, an amount of the compound required to increase the vertebral arterial blood flow by 50% was checked to obtain results shown in following Table 2, wherein the amount is given as ED₅₀ (µg/kg).

For experiment [3], the system named is mongrel dogs. The description is as above. The note with it: Canis lupus familiaris, iv, read-out: ED50, i.v. (amount required to increase the vertebral arterial blood flow by 50%).

For `COC(=O)C1=C(C)NC(C)=C(C(=O)OC)C1c1ccccc1[N+](=O)[O-]` [Nifedipine, dimethyl ester of 1,4-dihydro-2,6-dimethyl-4-(2-nitrophenyl)pyridine-3,5-dicarboxylic acid, reference compound], in experiment [1], the “systric pressure of median sacral artery, change at 1 hr (%)” value (“systric pressure … change at 1 hr (%)” for short) is listed as -19.3±4.41%; the “systric pressure of median sacral artery, change at 2 hr (%)” value (“systric pressure … change at 2 hr (%)” below) is -10.6±3.14%; the “systric pressure of median sacral artery, change at 4 hr (%)” value (shortened to “systric pressure … change at 4 hr (%)”) is reported as -4.3±2.70%; the “systric pressure of median sacral artery, change at 6 hr (%)” value (“systric pressure … change at 6 hr (%)” for short) is listed as -0.1±1.56%. Besides, in experiment [1], the “systric pressure of median sacral artery, change at 24 hr (%)” value (“systric pressure … change at 24 hr (%)” below) was -1.1±1.06%.
For `CC1=C(C(=O)OCCN2Cc3ccc(Cl)cc3C2)C(c2cccc([N+](=O)[O-])c2)C(C(=O)OCC2CC2)=C(C)N1` (centres unmarked) [Example 2, 3-[2-(5-Chloroisoindolin-2-yl)ethyl] 5-cyclopropymethyl 1.4-dihydro-2,6-dimethyl-4-(3-nitrophenyl)-pyridine-3,5-dicarboxylate], in the experiment on mongrel dogs [2], the “Change (%) DBP (Diastolic blood pressure)” value (“Change (%) DBP” below) is reported as -7 ± 2%, the “Change (%) FABF (Femoral arteial blood flow)” value (“Change (%) FABF” below) is reported as 23 ± 8% and the “Change (%) VABF (Vertebral arterial blood flow)” value (“Change (%) VABF” for short) is 40 ± 6%. In experiment [1], the “systric pressure … change at 1 hr (%)” value is listed as -3.0±1.47%; the “systric pressure … change at 2 hr (%)” value is listed as -9.0±2.82%; the “systric pressure … change at 4 hr (%)” value was -13.2±6.15%; the “systric pressure … change at 6 hr (%)” value is recorded as -21.4±3.67%. Besides, the “systric pressure … change at 24 hr (%)” value in experiment [1] is given as -14.3±4.09%. For the same molecule, the ED50 in the experiment with mongrel dogs [3] was 1.6 µg/kg.
For `CC1=C(C(=O)OCCN(C)Cc2ccc(Cl)cc2Cl)C(c2cccc([N+](=O)[O-])c2)C(C(=O)OCC2CC2)=C(C)N1` (centres unmarked) [Example 1, 3-Cyclopropylmethyl 5-[2-[N-(2,4-dichlorobenzyl)-N-methylamino]-ethyl]1.4-dihydro-2,6-dimethyl-4-(3-nitrophenyl)-pyridine-3,5-dicarboxylate], in the experiment on mongrel dogs [2], the “Change (%) DBP” value is given as -7 ± 1%, the “Change (%) FABF” value is recorded as 23 ± 7% and the “Change (%) VABF” value was found to be 90 ± 17%. In experiment [1], the “systric pressure … change at 1 hr (%)” value is -33.3±6.57%; the “systric pressure … change at 2 hr (%)” value is -35.2±4.12%; the “systric pressure … change at 4 hr (%)” value was -34.0±2.42%; the “systric pressure … change at 6 hr (%)” value is listed as -32.8±2.72%. Besides, the “systric pressure … change at 24 hr (%)” value in experiment [1] is reported as -13.0±5.94%. In addition, the ED50 with mongrel dogs [3] came out at 1.1 µg/kg.
As to `COC(=O)C1=C(C)NC(C)=C(C(=O)OCCN(C)Cc2ccccc2)C1c1cccc([N+](=O)[O-])c1` (centres unmarked) [Nicardipine, 1,4-dihydro-2,6-dimethyl-4-(3-nitrophenyl)pyridine-3,5-dicarboxylic acid 3-2-(N-benzyl-N-methylamino)ethyl 5-methyl ester, reference compound], in the experiment on mongrel dogs [2], the “Change (%) DBP” value is -10 ± 1%, the “Change (%) FABF” value is given as 14 ± 5% and the “Change (%) VABF” value came to 32 ± 7%. Further, in experiment [1], the “systric pressure … change at 1 hr (%)” value was -10.0±2.28%; the “systric pressure … change at 2 hr (%)” value was -5.7±1.61%; the “systric pressure … change at 4 hr (%)” value is -3.0±2.01%; the “systric pressure … change at 6 hr (%)” value is on record as -1.0±1.50%. The “systric pressure … change at 24 hr (%)” value in experiment [1] is on record as -4.2±1.88%. For the same molecule, the ED50 with mongrel dogs [3] is 4.2 µg/kg.

What is called ED50 is the dose that gives a 50% effect, or the effect in half of the subjects.

The values are drawn from patent EP0280239A1, “1,4-Dihydropyridine derivatives, production and use thereof” (SANWA KAGAKU KENKYUSHO CO., LTD., priority 1987, dated 1988).
